Starred links: 1 amine or outer side, 2 acyl side, 3 side chain; linkers in the order of their positions; H or OH if unused. Positions of bridges follow the written chain, without caps; N, C: chain ends. Non-standard residues stand in square brackets, D forms with d. Residues, ends and D or L forms follow the SMILES beside them. *: point of attachment. X1 = CC1CC(C)(C)Nc2c1cc1c(c2S(=O)(=O)O)Oc2c(S(=O)(=O)O)c3c(cc2=C1c1c(Cl)c(SCC(=O)*)c(Cl)c(Cl)c1C(=O)O)C(C)CC(C)(C)N=3; X2 = N=C(CCCSC1CC(=O)N(CCCCCN[*:1])C1=O)NCC(=O)[*:2]
Legend:
[1] = test system: intact mouse ventricular myocytes; type: cell-based; settings: for speed of penetration into living isolated cardiomyocytes: conclusion, native toxin judged by [Ca2+]i transients, derivative by fluorescence
Procedure: To visualize the cell-penetrating properties of Alexa-IpTxa in intact cells, ventricular cardiomyocytes were enzymatically isolated and incubated with 5 μM Alexa-IpTxa and Alexa 488-Wheat Germ Agglutinin (10 μg/mL) for 30 min at room temperature (see Experimental Methods). The distribution of Alexa-546-IpTxa (red fluorescence) and WAG-Alexa-488 (green fluorescence) were monitored in living, unfixed cardiac myocytes.
We next sought to establish a time-course for the translocation of Alexa-IpTxa across the plasma membrane of intact cardiomyocytes. […] Clear intracellular localization of fluorescence is seen only with Alexa-IpTxa, as early as 10 min after incubation (panel D), but more intensely after 20 min incubation (panel F). In order to refine the time-course of Alexa-IpTxa penetration into cardiomyocytes, we continuously monitored the evolution of fluorescence in 3 regions of interest (ROI) corresponding to the plasma membrane and adjacent cytosol (ROI-1), the bulk cytosol (ROI-2), and the nucleus (ROI-3). A fourth ROI (not shown) was defined to monitor changes in fluorescence of the bath solution. Animations of IpTxa translocation into cells are available online as supplementary data (URL: http://www.mdpi.com/1424-8247/3/4/1093/S1).
Isolated cardiac myocytes were incubated with Alexa-546-IpTxa (5 μM) with or without WGA-Alexa 488 (10 μg/mL) for 30 min in the dark. Images were acquired with a BioRad MR-1 confocal microscope coupled to a Nikon Disphot microscope and an X60 oil immersion objective using the Lasersharp 2000 software. Confocal images are 0.25 μm sections. All experiments were performed at room temperature.
Ventricular myocytes were imaged with a Zeiss META 5 confocal microscope equipped with laser scanning. Three regions of interest were delineated corresponding to the plasma membrane (ROI-1), […]. Changes in fluorescence intensity in these regions were monitored and analyzed. Alexa-546-IpTxa fluorescence was excited with the 488 nm line of an argon laser, and emitted light was filtered by a LP 585 filter. Alexa-546-IpTxa was perfused at a concentration of 1 μM. Scans were taken every 3 seconds for a total of 351 seconds. After the time series, perfusion was turned off and the cell remained in the bath for 30 minutes. Scans were taken at 9 minutes and 30 minutes.

[2] = test system: isolated rat ventricular myocytes; settings: 0.5 mM; followed by steady decline to a new lower steady-state; cited from earlier work
Procedure: At lower concentrations (100-300 nM), IpTxa perfusion elicited several discernible stimulatory effects in most cells.

[3] = test system: intact mouse ventricular cardiomyocytes; test: Ca2+ imaging of field-stimulated ventricular myocytes perfused with toxin; type: cell-based
Procedure: IpTxa’s ability to induce subconducting states in single channels and to enhance binding of [^3H]ryanodine to SR vesicles distinguish it as a RyR agonist. […] Ventricular cardiomyocytes were enzymatically digested, loaded with the Ca^2+ indicator Fluo-3, and placed into the perfusion chamber of a Zeiss confocal microscope (see Experimental Methods). Cells were field-stimulated under Normal Tyrode (NT) solution, and Ca^2+ transients were recorded in line-scan mode (control). Perfusion was then changed to NT + IpTxa (in the range of 100 nM-30 µM), and transients were recorded in the presence of toxin (+IpTxa). We hypothesized that if IpTxa penetrates cardiomyocytes to reach its intracellular target, it would alter the shape of [Ca^2+]i transients elicited with field-stimulation. As expected, changes in [Ca^2+]i transients were evident within seconds of perfusion with the toxin. […] For this experiment, cells were paced at 0.5 Hz under NT solution (see Experimental Methods). Cells were scanned first without IpTxa (control transients, Figure 1A), and then IpTxa was perfused and a second scan was taken immediately afterward (Figure 1B).
Mouse ventricular myocytes were isolated by collagenase digestion of perfused mouse hearts using the method of Mitra and Morad with modification addressed by Wolska and Solaro [23]. Mice were heparinized and anesthetized […] before removal and hanging of the heart. Cells were suspended in Tyrode solution ((mM) 130 NaCl, 5.4 KCl, 0.4 NaH2PO4, 0.5 MgCl2, 25 HEPES, 22 glucose, 0.01 μg/mL insulin, pH7.4 with NaOH) and kept at room temperature until used within 6 h.
Changes in cytosolic [Ca^2+] using the Ca^2+-dependent fluorescent dye Fluo-3 AM. Fluo-3 AM was added to ventricular myocytes in Tyrodes solution (final concentration 10 μM) and incubated at room temperature for 30 minutes, after which the cells were washed and resuspended in Tyrodes solution. Fluorescence changes were monitored with a Zeiss META 5 line-scanning confocal microscope. Fluo-3 was excited at 488nm, and emissions were collected at 500-570 nm. Cells were perfused with normal Tyrodes and field-stimulated at 1 Hz. After recording control transients, synthetic, unmodified IpTxa was perfused at concentrations of 10 μM, 1 μM, and 100 nM for 10 seconds. To estimate the calcium load of the sarcoplasmic reticulum, we stopped stimulations and performed a rapid application of 10 mM caffeine to elicit complete Ca^2+ release.

## CC(C)C[C@@H]1NC(=O)[C@H](Cc2c[nH]cn2)NC(=O)[C@@H]2CCCN2C(=O)[C@H](CC(C)C)NC(=O)[C@@H](NC(=O)[C@H](CC(=O)O)NC(=O)CNC(=N)CCCSC2CC(=O)N(CCCCCNC(=O)CSc3c(Cl)c(Cl)c(C(=O)O)c(C4=c5cc6c(c(S(=O)(=O)O)c5Oc5c4cc4c(c5S(=O)(=O)O)NC(C)(C)CC4C)=NC(C)(C)CC6C)c3Cl)C2=O)CSSC[C@@H]2NC(=O)[C@@H]3CSSC[C@@H](C(=O)N[C@@H](CCCNC(=N)N)C(=O)O)NC(=O)[C@H](CCCNC(=N)N)NC(=O)[C@H](CCCCN)NC(=O)[C@H](CCC(=O)O)NC(=O)[C@H](C)NC(=O)[C@H](CC(N)=O)NC(=O)[C@H]([C@@H](C)O)NC(=O)CNC(=O)[C@H](CCCNC(=N)N)NC(=O)[C@H](CCCNC(=N)N)NC(=O)[C@H](CCCCN)NC(=O)[C@H](CSSC[C@H](NC(=O)[C@H](CCCNC(=N)N)NC(=O)[C@H](CCCCN)NC1=O)C(=O)N[C@@H](CCCCN)C(=O)N[C@@H](C)C(=O)N[C@@H](CC(=O)O)C(=O)N[C@@H](CC(N)=O)C(=O)N[C@@H](CC(=O)O)C(=O)N3)NC(=O)[C@H](CCCCN)NC(=O)[C@H](CCCCN)NC(=O)CNC2=O (stereo partly drawn) [Alexa-IpTxa] (X1-[X2]DCLPHLKRCKADNDCCGKKCKRRGTNAEKRCR-OH; disulfide 3-17, 10-21, 16-32; C-terminus assumed)
[1]; 1 μM perfusion, confocal, more intense at later time
  time at which clear intracellular localization of fluorescence is seen: ≤ 10 min
[1]
  speed of penetration into living isolated cardiomyocytes: slower (minutes)

## CC1CC(C)(C)Nc2c1cc1c(c2S(=O)(=O)O)Oc2c(S(=O)(=O)O)c3c(cc2=C1c1c(Cl)c(SCC(=O)NCCCCCN2C(=O)C=CC2=O)c(Cl)c(Cl)c1C(=O)O)C(C)CC(C)(C)N=3 (stereo not drawn) [Alexa-maleimide, Alexa-Fluor-546-C5-maleimide, reference compound]
[1]; as stated for the fluorophore reagent
  membrane permeability (negative control): membrane-impermeable

## Cn1c(=O)c2c(ncn2C)n(C)c1=O [caffeine]
[2]
  effect on Ca2+ transient amplitude: brief increase in the amplitude of the Ca^2+ transient

## CC(C)C[C@@H]1NC(=O)[C@H](Cc2c[nH]cn2)NC(=O)[C@@H]2CCCN2C(=O)[C@H](CC(C)C)NC(=O)[C@@H](NC(=O)[C@H](CC(=O)O)NC(=O)CN)CSSC[C@@H]2NC(=O)[C@@H]3CSSC[C@@H](C(=O)N[C@@H](CCCNC(=N)N)C(=O)O)NC(=O)[C@H](CCCNC(=N)N)NC(=O)[C@H](CCCCN)NC(=O)[C@H](CCC(=O)O)NC(=O)[C@H](C)NC(=O)[C@H](CC(N)=O)NC(=O)[C@H]([C@@H](C)O)NC(=O)CNC(=O)[C@H](CCCNC(=N)N)NC(=O)[C@H](CCCNC(=N)N)NC(=O)[C@H](CCCCN)NC(=O)[C@H](CSSC[C@H](NC(=O)[C@H](CCCNC(=N)N)NC(=O)[C@H](CCCCN)NC1=O)C(=O)N[C@@H](CCCCN)C(=O)N[C@@H](C)C(=O)N[C@@H](CC(=O)O)C(=O)N[C@@H](CC(N)=O)C(=O)N[C@@H](CC(=O)O)C(=O)N3)NC(=O)[C@H](CCCCN)NC(=O)[C@H](CCCCN)NC(=O)CNC2=O [IpTxa, imperatoxin A] (H-GDCLPHLKRCKADNDCCGKKCKRRGTNAEKRCR-OH; disulfide 3-17, 10-21, 16-32 (inferred); N-terminus and C-terminus assumed)
[3]; 100 nM to 3 µM perfused, in some cells
  effect on diastolic [Ca2+]i: elevated diastolic [Ca^2+]i
[3]; 30 µM perfused in normal Tyrode, cells paced at 0.5 Hz, Fluo indicator, line-scan confocal, representative of three of four experiments
  effect on [Ca2+]i transients at high concentration: complete cessation of [Ca^2+]i transients
[3]; 100-300 nM perfused, followed by gradual diminution to a new, lower steady-state, representative of 12 of 36 experiments
  effect on [Ca2+]i transient amplitude at lower concentrations: significant increase in the amplitude of the [Ca^2+]i transient
[3]; perfusion on intact cells
  lag time of effects on intracellular Ca2+ signaling after perfusion: 2 to 3 s
[1]
  speed of penetration into living isolated cardiomyocytes: rapid (few seconds)

— publication PMC2910439, “Imperatoxin A, a Cell-Penetrating Peptide from Scorpion Venom, as a Probe of Ca^2+-Release Channels/Ryanodine Receptors” (Pharmaceuticals, 2010)
